System: patients with menopausal symptoms
Test: Case study: menopausal symptoms, transdermal estriol in oil (Example 15)
Assay type: in vivo, human
Conditions: after 15 and 30 days; one patient each: estriol 1 mg oral tablet daily; example 7 oil 0.5 ml twice daily on skin (0.25 mg estriol daily); oral multivitamin and minerals tablet
Method: Three patients with menopausal symptoms were taken for study. The patients were divided into three groups. First patient was advised to take orally estriol one mg as tablet daily. Second patient was advised to apply over skin of thighs and abdomen 0.5 ml twice daily medicated optimized nutrient oil prepared by a process as given in example-7 which contains 0.25 mg estriol/ml, so that 0.25 mg estriol is absorbed daily by the body through skin. Third patient was given oral multivitamin and minerals as tablet.

## C[C@]12CC[C@@H]3c4ccc(O)cc4CC[C@H]3[C@@H]1C[C@@H](O)[C@@H]2O [estriol]
  hot flushes, mood changes and sleep pattern: improvement in all the three symptoms

Reference: patent US20170360073A1, “OPTIMIZED NUTRIENT FATTY ACID COMPOSITION” (priority 2014, published 2017)
